Source: patent US10125134B2 (Mirati Therapeutics, Inc., priority 2016, dated 2018)
Read-outs that look alike come from different tables or passages of the source.

Key:
KRas G12C = KRas G12C (Homo sapiens, UniProt P01116, C118S/C51S/C80L/G12C); experiment: KRas G12C Modification Assay (LCMS detection of covalent adduct); format: binding; details: normalized percent of control; tested at 5 μM concentration for 3 hours
How it was run: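 Covalent modification was read by reverse-phase LC/MS of intact protein after compound exposure, each reaction stopped at its time point with 25 mM acetic acid. Unmodified-protein signal, taken as percent of total, was normalised to untreated protein and reported as POC.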

[1] = system: NCI-H358 cells (express KRas G12C), Phospho-ERK; experiment: Cellular inhibition of KRas G12C: Phospho-ERK in NCI-H358 cells; format: cell-based; details: pERK(Thr202/Tyr204) normalized with GAPDH, NCI-H358 cells, 3 hours, read-out: IC50
How it was run: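 IC50 derived by 4-parameter fit of GAPDH-normalized pERK(Thr202/Tyr204) signal, as percent of DMSO control. Signal came from in-cell immunodetection with infrared secondaries after 3 h compound exposure of KRas G12C NCI-H358 cells at 0.5% DMSO.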

Row | SMILES | POC (KRas G12C) | IC50 ([1]; Homo sapiens, NCI-H358, 3 h) [nM] | IC50 ([1]; Homo sapiens) [nM] | IC50 [1] [nM]
1 | C=CC(=O)N1CCN(c2nc(OC[C@H]3CN(C)CCO3)nc3c2CCN(c2cccc4ccccc24)C3)C[C@@H]1CC#N [Example 448, 2-((S)-1-Acryloyl-4-(2-(((R)-4-methylmorpholin-2-yl)methoxy)-7-(naphthalen-1-yl)-5,6,7,8-tetrahydropyrido[3,4-d]pyrimidin-4-yl)piperazin-2-yl)acetonitrile] | C (“C”>50% POC) | 0.1 to 1000 | – | –
2 | C=CC(=O)N1CCN(c2nc(OCCCN3CCOCC3)nc3c2CCN(c2c(C)ccc4[nH]ncc24)C3)CC1 [Example 44, 1-(4-(7-(5-methyl-1H-indazol-4-yl)-2-(3-morpholinopropoxy)-5,6,7,8-tetrahydropyrido[3,4-d]pyrimidin-4-yl)piperazin-1-yl)prop-2-en-1-one] | C (“C”>50% POC) | – | > 1000 | –
3 | C=CC(=O)N1CCN(c2nc(OCCN3C[C@@H]4CC[C@H]3C4)nc3c2CCN(c2cc(O)cc4ccccc24)C3)CC1 [Example 77, 1-(4-(2-(2-((1 S,4R)-2-azabicyclo[2.2.1]heptan-2-yl)ethoxy)-7-(3-hydroxynaphthalen-1-yl)-5,6,7,8-tetrahydropyrido[3,4-d]pyrimidin-4-yl)piperazin-1-yl)prop-2-en-1-one] | C (“C”>50% POC) | 0.1 to 1000 | – | –
4 | C=CC(=O)N1CCN(c2ncnc3c2CCN(c2c(C)ccc4[nH]ncc24)C3)CC1 [Example 7, 1-(4-(7-(5-methyl-1H-indazol-4-yl)-5,6,7,8-tetrahydropyrido[3,4-d]pyrimidin-4-yl)piperazin-1-yl)prop-2-en-1-one] | A (“A”≤25% POC) | > 1000 | – | –
5 | C=CC(=O)N1CCN(c2nc(OC[C@@H]3CCCN3C)nc3c2CCN(c2c(C)c(C)cc4[nH]ncc24)C3)CC1 [Example 451, 1-[4-[7-(5,6-dimethyl-1H-indazol-4-yl)-2-[[(2S)-1-methylpyrrolidin-2-yl]methoxy]-6,8-dihydro-5H-pyrido[3,4-d]pyrimidin-4-yl]piperazin-1-yl]prop-2-en-1-one] | C (“C”>50% POC) | 0.1 to 1000 | – | –
6 | C=CC(=O)N1CCN(c2nc(OC[C@@H]3CN(C)CCN3)nc3c2CCN(c2cccc4ccccc24)C3)CC1CC#N (stereo partly drawn) [Example 223, 2-(1-acryloyl-4-(2-(((S)-4-methylpiperazin-2-yl)methoxy)-7-(naphthalen-1-yl)-5,6,7,8-tetrahydropyrido[3,4-d]pyrimidin-4-yl)piperazin-2-yl)acetonitrile] | C (“C”>50% POC) | 0.1 to 1000 | – | –
7 | C=CC(=O)N1CCN(c2nc(OC[C@H]3CCCN3C)nc3c2CCN(c2c(C(F)(F)F)ccc4[nH]ncc24)C3)CC1CC#N (stereo partly drawn) [Example 243, 2-[4-[2-[[(2R)-1-methylpyrrolidin-2-yl]methoxy]-7-[5-(trifluoromethyl)-1H-indazol-4-yl]-6,8-dihydro-5H-pyrido[3,4-d]pyrimidin-4-yl]-1-prop-2-enoyl-piperazin-2-yl]acetonitrile] | C (“C”>50% POC) | 0.1 to 1000 | – | –
8 | C=CC(=O)N1CCN(c2nc(OCC(C)(C)N(C)C)nc3c2CCN(c2cccc4ccccc24)C3)CC1CC#N (centres unmarked) [Example 396, 2-(1-acryloyl-4-(2-(2-(dimethylamino)-2-methylpropoxy)-7-(naphthalen-1-yl)-5,6,7,8-tetrahydropyrido[3,4-d]pyrimidin-4-yl)piperazin-2-yl)acetonitrile] | C (“C”>50% POC) | – | – | 0.1 to 1000
9 | CN(C)C/C=C/C(=O)N1CCN(c2nc(OC[C@@H]3CCCN3C)nc3c2CCN(c2cccc4ccccc24)C3)C[C@@H]1CC#N [Example 235, 2-((S)-1-((E)-4-(dimethylamino)but-2-enoyl)-4-(2-(((S)-1-methylpyrrolidin-2-yl)methoxy)-7-(naphthalen-1-yl)-5,6,7,8-tetrahydropyrido[3,4-d]pyrimidin-4-yl)piperazin-2-yl)acetonitrile] | C (“C”>50% POC) | 0.1 to 1000 | – | –
10 | C=CC(=O)N1CCN(c2nc(OCCN(C)C)nc3c2CCN(c2cc(O)cc4ccccc24)C3)CC1 [Example 9, 1-(4-(2-(2-(dimethylamino)ethoxy)-7-(3-hydroxynaphthalen-1-yl)-5,6,7,8-tetrahydropyrido[3,4-d]pyrimidin-4-yl)piperazin-1-yl)prop-2-en-1-one] | C (“C”>50% POC) | > 1000 | – | –
11 | C/C=C/C(=O)N1CCN(c2nc(OC[C@@H]3CCCN3C)nc3c2CCN(c2cccc4ccccc24)C3)CC1CC#N (stereo partly drawn) [Example 293, 2-[1-[(E)-but-2-enoyl]-4-[2-[[(2S)-1-methylpyrrolidin-2-yl]methoxy]-7-(1-naphthyl)-6,8-dihydro-5H-pyrido[3,4-d]pyrimidin-4-yl]piperazin-2-yl]acetonitrile] | C (“C”>50% POC) | – | – | 0.1 to 1000
12 | C=CC(=O)N1CCN(c2nc(OCCCCN(C)C)nc3c2CCN(c2cc(O)cc4ccccc24)C3)CC1 [Example 40, 1-(4-(2-(4-(dimethylamino)butoxy)-7-(3-hydroxynaphthalen-1-yl)-5,6,7,8-tetrahydropyrido[3,4-d]pyrimidin-4-yl)piperazin-1-yl)prop-2-en-1-one] | C (“C”>50% POC) | 0.1 to 1000 | – | –
13 | C=CC(=O)N1CCN(c2nc(OC[C@@H]3CCCN3C)nc3c2CCN(c2c(C(F)(F)F)ccc4[nH]ncc24)C3)CC1CC#N (stereo partly drawn) [Example 149, 2-[4-[2-[[(2S)-1-methylpyrrolidin-2-yl]methoxy]-7-[5-(trifluoromethyl)-1H-indazol-4-yl]-6,8-dihydro-5H-pyrido[3,4-d]pyrimidin-4-yl]-1-prop-2-enoyl-piperazin-2-yl]acetonitrile] | B (“B”>25% POC−≤50% POC) | – | 0.1 to 1000 | –
14 | C=CC(=O)N1CCN(c2nc(OC[C@@H]3CCCN3C)nc3c2CCN(c2cccnc2C(F)(F)F)C3)CC1CC#N (stereo partly drawn) [Example 226, 2-(1-acryloyl-4-(2-(((S)-1-methylpyrrolidin-2-yl)methoxy)-7-(2-(trifluoromethyl)pyridin-3-yl)-5,6,7,8-tetrahydropyrido[3,4-d]pyrimidin-4-yl)piperazin-2-yl)acetonitrile] | C (“C”>50% POC) | 0.1 to 1000 | – | –

Continued, in another order:

Row | POC (KRas G12C) | SMILES | IC50 ([1]; Homo sapiens, NCI-H358, 3 h) [nM] | IC50 ([1]; Homo sapiens) [nM] | IC50 [1] [nM]
15 | C (“C”>50% POC) | C=CC(=O)N1CCN(c2nc(OC[C@@H]3C[C@@H](OC)CN3C)nc3c2CCN(c2cc(OC)cc4ccccc24)C3)CC1 [Example 356, 1-[4-[2-[[(2S,4R)-4-methoxy-1-methyl-pyrrolidin-2-yl]methoxy]-7-(3-methoxy-1-naphthyl)-6,8-dihydro-5H-pyrido[3,4-d]pyrimidin-4-yl]piperazin-1-yl]prop-2-en-1-one] | > 1000 | – | –
16 | A (“A”≤25% POC) | C=CC(=O)N1CCN(c2ncnc3c2CCN(C(CO)c2ccccc2)C3)CC1 (centres unmarked) [Example 71, 1-(4-(7-(2-hydroxy-1-phenylethyl)-5,6,7,8-tetrahydropyrido[3,4-d]pyrimidin-4-yl)piperazin-1-yl)prop-2-en-1-one] | – | > 1000 | –
17 | C (“C”>50% POC) | C=CC(=O)N1CCN(c2nc(OCCN3CCC(C#N)CC3)nc3c2CCN(c2cc(O)cc4ccccc24)C3)CC1 [Example 81, 1-(2-((4-(4-acryloylpiperazin-1-yl)-7-(3-hydroxynaphthalen-1-yl)-5,6,7,8-tetrahydropyrido[3,4-d]pyrimidin-2-yl)oxy)ethyl)piperidine-4-carbonitrile] | > 1000 | – | –
18 | C (“C”>50% POC) | C=CC(=O)N1CCN(c2nc(OCCN(C)C)nc3c2CCN(c2ccccc2C(F)(F)F)C3)CC1CC#N (centres unmarked) [Example 296, 2-[4-[2-[2-(dimethylamino)ethoxy]-7-[2-(trifluoromethyl)phenyl]-6,8-dihydro-5H-pyrido[3,4-d]pyrimidin-4-yl]-1-prop-2-enoyl-piperazin-2-yl]acetonitrile] | – | – | 0.1 to 1000
19 | C (“C”>50% POC) | C=CC(=O)N1CCN(c2nc(OCCN3CCCCC3)nc3c2CCN(c2cc(O)cc4ccccc24)C3)CC1 [Example 52, 1-[4-[7-(3-hydroxy-1-naphthyl)-2-[2-(1-piperidyl)ethoxy]-6,8-dihydro-5H-pyrido[3,4-d]pyrimidin-4-yl]piperazin-1-yl]prop-2-en-1-one] | 0.1 to 1000 | – | –
20 | C (“C”>50% POC) | C=CC(=O)N1CCN(c2nc(O[C@H](C)CN3CC[C@H](O)C3)nc3c2CCN(c2cc(O)cc4ccccc24)C3)CC1 [Example 65, 1-(4-(7-(3-hydroxynaphthalen-1-yl)-2-(((R)-1-((S)-3-hydroxypyrrolidin-1-yl)propan-2-yl)oxy)-5,6,7,8-tetrahydropyrido[3,4-d]pyrimidin-4-yl)piperazin-1-yl)prop-2-en-1-one] | > 1000 | – | –
21 | C (“C”>50% POC) | C=CC(=O)N1CCN(c2nc(OC[C@@H]3CCCN3C)nc3c2CCN(c2ccncc2C(F)(F)F)C3)CC1CC#N (stereo partly drawn) [Example 239, 2-(1-acryloyl-4-(2-(((S)-1-methylpyrrolidin-2-yl)methoxy)-7-(3-(trifluoromethyl)pyridin-4-yl)-5,6,7,8-tetrahydropyrido[3,4-d]pyrimidin-4-yl)piperazin-2-yl)acetonitrile] | > 1000 | – | –
22 | B (“B”>25% POC−≤50% POC) | C=CC(=O)N1CCN(c2ncnc3c2CCN(c2cc(O)cc4ccccc24)C3)CC1 [Example 1, 1-(4-(7-(3-hydroxynaphthalen-1-yl)-5,6,7,8-tetrahydropyrido[3,4-d]pyrimidin-4-yl)piperazin-1-yl)prop-2-en-1-one] | > 1000 | – | –
